# Assay results reported in ChEMBL document CHEMBL1201862, “PubChem BioAssay data set” (2004).
#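 The compound was tested at five concentrations on cells cultured in 96-well plates, with a 48-hour exposure period. GI50 = concentration required for 50% inhibition of growth.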 The source made the active and inactive calls. Cut-off read from the data, not from the text of the source: active = GI50 up to about 1.1 µM and inactive = higher.
# How the values were obtained:
# Assay in all cases: NCI anticancer screen, dose series, 48 h
# SF-539 = system: SF-539
# SR = system: SR
# A498 = system: A498
# K562 = system: K562
# MDA-N = system: MDA-N
# HCT-15 = system: HCT-15
# RXF 393 = system: RXF 393
# NCI-H23 = system: NCI-H23
# HL-60 = system: HL-60
# LOX IMVI = system: LOX IMVI
# SF-268 = system: SF-268
# MDA-MB-435 = system: MDA-MB-435
# NCI-H226 = system: NCI-H226
# ACHN = system: ACHN
# IGROV-1 = system: IGROV-1
# UO-31 = system: UO-31
# NCI/ADR-RES = system: NCI/ADR-RES
# RPMI-8226 = system: RPMI-8226
SMILES,GI50 (SF-539),GI50 (SR),GI50 (A498),GI50 (K562),GI50 (MDA-N),GI50 (HCT-15) [µM],GI50 (RXF 393),GI50 (NCI-H23),GI50 (HL-60),GI50 (LOX IMVI),GI50 (SF-268),GI50 (MDA-MB-435),GI50 (NCI-H226),GI50 (ACHN),GI50 (IGROV-1),GI50 (UO-31),GI50 (NCI/ADR-RES),GI50 (RPMI-8226)
C[N+]1(C)CCc2cc(O)c(O)cc2C1Cc1ccc(O)c(O)c1 (stereo not drawn),50.4 µM (inactive),34.8 µM (inactive),> 100 µM (inactive),34 µM (inactive),32.2 µM (inactive),36,39.9 µM (inactive),> 100 µM (inactive),18.3 µM (inactive),27.7 µM (inactive),39.6 µM (inactive),20.2 µM (inactive),39.2 µM (inactive),35.3 µM (inactive),28 µM (inactive),92 µM (inactive),79.4 µM (inactive),22.2 µM (inactive)
C=C1CC/C=C(\C)CCC[C@H](C)[C@@H](O)[C@@H]2OC(=O)C(=C)[C@@H]2C[C@H]1O,2.27 µM (inactive),4.83 µM (inactive),66.4 µM (inactive),2.99 µM (inactive),8.47 µM (inactive),3.42,4.25 µM (inactive),12.5 µM (inactive),2.42 µM (inactive),3.69 µM (inactive),8.26 µM (inactive),3.62 µM (inactive),4.05 µM (inactive),2.73 µM (inactive),3.88 µM (inactive),6.22 µM (inactive),8.3 µM (inactive),3.52 µM (inactive)
O=C(Nc1sccc1S(=O)(=O)c1ccc(Cl)cc1)c1ccccc1,60.1 µM (inactive),> 100 µM (inactive),> 100 µM (inactive),> 100 µM (inactive),> 100 µM (inactive),> 100,> 100 µM (inactive),> 100 µM (inactive),> 100 µM (inactive),> 100 µM (inactive),> 100 µM (inactive),> 100 µM (inactive),> 100 µM (inactive),> 100 µM (inactive),> 100 µM (inactive),> 100 µM (inactive),> 100 µM (inactive),> 100 µM (inactive)
O=C(/C=C/c1ccc([N+](=O)[O-])cc1)N1CCN(CCOC(c2ccc(F)cc2)c2ccc(F)cc2)CC1,45.9 µM (inactive),7.21 µM (inactive),16 µM (inactive),4.99 µM (inactive),27.1 µM (inactive),19.1,9.44 µM (inactive),> 100 µM (inactive),9.68 µM (inactive),24.6 µM (inactive),> 100 µM (inactive),9.84 µM (inactive),> 100 µM (inactive),4.34 µM (inactive),56.9 µM (inactive),14.3 µM (inactive),4.72 µM (inactive),3.78 µM (inactive)
CCOC(=O)c1c(SCCN(CC)CC)n(-c2ccccc2)c(=S)n(-c2ccccc2)c1=O,4.48 µM (inactive),0.714 µM (active),15.2 µM (inactive),1.72 µM (inactive),2.7 µM (inactive),2.54,1.72 µM (inactive),15.9 µM (inactive),1.73 µM (inactive),1.95 µM (inactive),4.56 µM (inactive),2.23 µM (inactive),21.5 µM (inactive),1.73 µM (inactive),5.16 µM (inactive),1.72 µM (inactive),32.1 µM (inactive),0.635 µM (active)
CC(=O)Nc1ccc2c3c(cc(O)c2c1)N(C(=O)CCCCCC(=O)Nc1ccc2c4c(cc(O)c2c1)N(C(=O)OC(C)(C)C)CC4CCl)CC3CCl (stereo not drawn),2.37 µM (inactive),0.118 µM (active),1.64 µM (inactive),3.3 µM (inactive),1.53 µM (inactive),> 100,1.24 µM (inactive),0.8 µM (active),0.355 µM (active),1.92 µM (inactive),0.646 µM (active),1.63 µM (inactive),1.55 µM (inactive),3.54 µM (inactive),8.05 µM (inactive),> 100 µM (inactive),> 100 µM (inactive),3.37 µM (inactive)
Oc1ccc(Cl)cc1-c1cc(-c2ccccc2)nc(NCN2CCCCC2)n1,> 100 µM (inactive),4.19 µM (inactive),> 100 µM (inactive),> 100 µM (inactive),> 100 µM (inactive),5.02,> 100 µM (inactive),72.1 µM (inactive),> 100 µM (inactive),> 100 µM (inactive),7.14 µM (inactive),> 100 µM (inactive),0.838 µM (active),24.2 µM (inactive),> 100 µM (inactive),> 100 µM (inactive),> 100 µM (inactive),> 100 µM (inactive)
COc1ccc(/C=C(/C#N)C(N)=O)c(OC)c1,> 100 µM (inactive),37.3 µM (inactive),10.8 µM (inactive),31.8 µM (inactive),19.3 µM (inactive),60.8,> 100 µM (inactive),> 100 µM (inactive),34 µM (inactive),> 100 µM (inactive),> 100 µM (inactive),23.5 µM (inactive),> 100 µM (inactive),> 100 µM (inactive),> 100 µM (inactive),2.15 µM (inactive),> 100 µM (inactive),> 100 µM (inactive)
CCOC1C=CC(=O)C(CO)O1 (stereo not drawn),9.02 µM (inactive),1.99 µM (inactive),26.2 µM (inactive),6.67 µM (inactive),15.3 µM (inactive),10,7.55 µM (inactive),12.6 µM (inactive),5.57 µM (inactive),5.58 µM (inactive),14.1 µM (inactive),12.2 µM (inactive),24 µM (inactive),10.8 µM (inactive),12.9 µM (inactive),2.21 µM (inactive),14.9 µM (inactive),2.14 µM (inactive)
CC(C)(C)OC(=O)NC(Cc1ccc(OCc2ccccc2)cn1)C(N)=O (stereo not drawn),> 100 µM (inactive),> 100 µM (inactive),> 100 µM (inactive),> 100 µM (inactive),68.5 µM (inactive),54.7,> 100 µM (inactive),86.5 µM (inactive),> 100 µM (inactive),> 100 µM (inactive),> 100 µM (inactive),> 100 µM (inactive),97.3 µM (inactive),> 100 µM (inactive),> 100 µM (inactive),82.6 µM (inactive),89.9 µM (inactive),> 100 µM (inactive)
COc1ccc(N2C(=O)C3c4[nH]c5c(C)cccc5c4C4CCC(C(C)(C)C)CC4C3C2=O)cc1 (stereo not drawn),9.42 µM (inactive),3.44 µM (inactive),> 10 µM (inactive),4.51 µM (inactive),> 10 µM (inactive),> 10,3.36 µM (inactive),4.19 µM (inactive),3.3 µM (inactive),2.16 µM (inactive),5.61 µM (inactive),> 10 µM (inactive),> 10 µM (inactive),5.12 µM (inactive),> 10 µM (inactive),2.72 µM (inactive),> 10 µM (inactive),6 µM (inactive)
N#Cc1c(N2CCCC2)ncn(-c2ccccc2)c1=O,> 100 µM (inactive),> 100 µM (inactive),> 100 µM (inactive),> 100 µM (inactive),> 100 µM (inactive),> 100,> 100 µM (inactive),> 100 µM (inactive),> 100 µM (inactive),> 100 µM (inactive),> 100 µM (inactive),> 100 µM (inactive),> 100 µM (inactive),> 100 µM (inactive),> 100 µM (inactive),> 100 µM (inactive),> 100 µM (inactive),> 100 µM (inactive)
CCOC(=O)CCN1C(=O)C(=O)N(c2ccc(OC)cc2)C1=S,97.7 µM (inactive),> 100 µM (inactive),> 100 µM (inactive),54.6 µM (inactive),97.5 µM (inactive),> 100,> 100 µM (inactive),> 100 µM (inactive),> 100 µM (inactive),> 100 µM (inactive),> 100 µM (inactive),> 100 µM (inactive),25.6 µM (inactive),> 100 µM (inactive),> 100 µM (inactive),56.5 µM (inactive),> 100 µM (inactive),> 100 µM (inactive)
CC1(C)C2CCC3CC(CCC#N)CCC3C21C#N (stereo not drawn),> 100 µM (inactive),> 100 µM (inactive),> 100 µM (inactive),> 100 µM (inactive),> 100 µM (inactive),> 100,> 100 µM (inactive),> 100 µM (inactive),> 100 µM (inactive),> 100 µM (inactive),> 100 µM (inactive),> 100 µM (inactive),> 100 µM (inactive),> 100 µM (inactive),> 100 µM (inactive),> 100 µM (inactive),> 100 µM (inactive),> 100 µM (inactive)
O=C(/C(=C(/Br)I)c1ccccc1)c1ccccc1,17.2 µM (inactive),27 µM (inactive),15 µM (inactive),14.4 µM (inactive),28.5 µM (inactive),25.1,16.8 µM (inactive),50.4 µM (inactive),28 µM (inactive),13.9 µM (inactive),22.1 µM (inactive),28.8 µM (inactive),19.3 µM (inactive),29.4 µM (inactive),29.7 µM (inactive),22.7 µM (inactive),16.8 µM (inactive),7.1 µM (inactive)
COc1cc(OC)c2c(=O)c(O)c(-c3ccc(OC)c(OC)c3)oc2c1,16.1 µM (inactive),3.33 µM (inactive),10.3 µM (inactive),5.25 µM (inactive),47.8 µM (inactive),3.08,8.99 µM (inactive),11.1 µM (inactive),3.48 µM (inactive),3.78 µM (inactive),4.11 µM (inactive),22.6 µM (inactive),9.4 µM (inactive),4.36 µM (inactive),4.86 µM (inactive),8.85 µM (inactive),2.86 µM (inactive),4.72 µM (inactive)
